pIC50: −log10 of the molar value. Like-named read-outs stand apart in the source and are kept apart here. Starred links: 1 amine or outer side, 2 acyl side, 3 side chain; linkers in the order of their positions; H or OH if unused. Positions of bridges follow the written chain, without caps; N, C: chain ends. Non-standard residues stand in square brackets, D forms with d. Residues, ends and D or L forms follow the SMILES beside them. Groups on a side chain read outwards from the residue. *: point of attachment. C20 diacid = O=C(O)CCCCCCCCCCCCCCCCCCC(=O)*; Trp(1-Me) = Cn1cc(C[C@H](N)C(=O)O)c2ccccc21; C18 diacid = O=C(O)CCCCCCCCCCCCCCCCC(=O)*; C16 diacid = O=C(O)CCCCCCCCCCCCCCC(=O)*; γGlu = O=C(O)[C@H](CCC(=O)[*:2])N[*:1]; 2Nal = N[C@@H](Cc1ccc2ccccc2c1)C(=O)O; Nva = CCC[C@H](N)C(=O)O; AEEA = NCCOCCOCC(=O)O; Sar = CNCC(=O)O

This assay has as its system classical complement pathway. Kind of assay: In vitro haemolysis assay (inhibition of classical complement pathway). It is filed as cell-based, human. As to conditions: for IC50: Table 3, human serum, sensitized sheep red blood cells, read-out: IC50[nM], in vitro analysis of inhibition of hemolysis. The method, then: Method The in vitro effect of test compounds was assessed by measuring their inhibitory effect of the classical complement pathway in a haemolysis assay. Briefly, test compounds and reference compounds were dissolved in DMSO and diluted in Tris/Casein Assay Buffer (10 mM Tris, 145 mM NaCl, 0.5 mM MgCl2, 0.15 mM CaCl2, and 0.1% W/V Casein, adjusted to pH 7.4) as 9-point serial dilutions in a 96 well plate. Sensitized sheep red blood cells (RBC) coated with rabbit anti-sheep erythrocyte antiserum (Complement Technology, Inc., TX, USA) were washed in Tris/Casein Assay Buffer. 50 μL from each well of diluted compound was added to a 96-well plate containing 50 μL diluted human serum (Complement Technology, Inc., TX, USA) and incubated for 15 minutes at room temperature. The serum dilution factor was optimized for every serum batch to obtain 70-90% of maximal haemolysis using the protocol. Then 50 μL sensitized sheep red blood cells were added to all wells ([…] per well). After 30 minutes of incubation at 37° C. with gentle agitation, the reaction was stopped by addition of 50 μL Tris STOP Buffer per well (10 mM EDTA, 10 mM Tris, 145 mM NaCl adjusted to pH 7.4). The RBCs were then removed by centrifugation and the resulting supernatant measured for hemolysis by absorbance at 405 nm. The response was normalized relative to a positive and negative control (vehicle) to calculate the IC50 from the concentration response curve using the 4-parameter logistic (4PL) nonlinear model for curve fitting.

Where [1] appears, read: Table 4, valine 3 versus isoleucine 3 pairs, read-out: CP hemolysis IC50.

As for `CC[C@H](C)[C@H](NC(C)=O)C(=O)N[C@H]1CSSC[C@@H](C(=O)N[C@H](C(N)=O)[C@@H](C)O)NC(=O)[C@H](CCCNC(=N)N)NC(=O)[C@H](Cc2c[nH]cn2)NC(=O)[C@H](CO)NC(=O)CNC(=O)[C@H](Cc2c[nH]c3ccccc23)NC(=O)[C@H](CC(=O)O)NC(=O)[C@H](CCC(N)=O)NC(=O)[C@H](Cc2c[nH]c3ccccc23)NC(=O)[C@H]([C@@H](C)CC)NC1=O` [Compound 6] (Ac-ICIWQDWGSHRCT-NH2; disulfide 2-12), the IC50 is under 250 nM. For the same compound, under setting [1], the pIC50 is 6.85.
As to `CC[C@H](C)[C@@H]1NC(=O)[C@@H](NC(=O)[C@H](Cc2ccccc2)NC(=O)[C@H](CCC(=O)O)NC(C)=O)CSSC[C@@H](C(=O)N[C@@H](CCC(=O)O)C(=O)NCC(=O)N[C@@H](CCC(=O)O)C(=O)N[C@@H](CCCCNC(=O)CC[C@H](NC(=O)CNC(=O)CC[C@H](NC(=O)CCCCCCCCCCCCCCCCC(=O)O)C(=O)O)C(=O)O)C(N)=O)NC(=O)[C@H](CCCNC(=N)N)NC(=O)[C@H](Cc2c[nH]cn2)NC(=O)[C@H](CCC(=O)O)NC(=O)CNC(=O)[C@H](Cc2c[nH]c3ccccc23)NC(=O)[C@H](CC(=O)O)NC(=O)[C@H](CCC(N)=O)NC(=O)[C@H](Cc2cn(C)c3ccccc23)NC1=O` [Compound 134] (Ac-EFCI[Trp(1-Me)]QDWGEHRCEGEK([γGlu-Gly-γGlu-C18 diacid])-NH2; disulfide 3-13), the IC50 is under 100 nM.
The same measure, in the same setting: with `CC[C@H](C)[C@@H]1NC(=O)[C@@H](NC(=O)[C@H](Cc2ccccc2)NC(C)=O)CSSC[C@@H](C(=O)N[C@H](C(=O)NCC(=O)N[C@@H](C)C(=O)N[C@@H](CCC(=O)O)C(=O)N[C@@H](CO)C(N)=O)[C@@H](C)O)NC(=O)[C@H](CCCNC(=N)N)NC(=O)[C@H](Cc2c[nH]cn2)NC(=O)[C@H](CCC(=O)O)NC(=O)CNC(=O)[C@H](Cc2c[nH]c3ccccc23)NC(=O)[C@H](CC(=O)O)NC(=O)[C@H](CCC(N)=O)NC(=O)[C@H](Cc2ccc3ccccc3c2)NC1=O` [Compound 64] (Ac-FCI[2Nal]QDWGEHRCTGAES-NH2; disulfide 2-12) the figure was under 100 nM; with `CC[C@H](C)[C@@H]1NC(=O)[C@@H](NC(=O)[C@H](Cc2ccc(O)cc2)NC(=O)[C@H](CCC(=O)O)NC(=O)[C@H](CO)NC(C)=O)CSSC[C@@H](C(=O)N(C)CC(=O)N[C@@H](CCC(=O)O)C(=O)NCC(=O)N[C@@H](CCC(=O)O)C(=O)NCCOCCOCC(=O)NCCOCCOCC(=O)N[C@@H](CCCCNC(=O)CC[C@H](NC(=O)CNC(=O)CC[C@H](NC(=O)CCCCCCCCCCCCCCCCC(=O)O)C(=O)O)C(=O)O)C(N)=O)NC(=O)[C@H](CCCNC(=N)N)NC(=O)[C@H](Cc2c[nH]cn2)NC(=O)[C@H](CCC(=O)O)NC(=O)CNC(=O)[C@H](Cc2c[nH]c3ccccc23)NC(=O)[C@H](CC(=O)O)NC(=O)[C@H](CCC(N)=O)NC(=O)[C@H](Cc2cn(C)c3ccccc23)NC1=O` [Compound 117] (Ac-SEYCI[Trp(1-Me)]QDWGEHRC[Sar]EGE[AEEA][AEEA]K([γGlu-Gly-γGlu-C18 diacid])-NH2; disulfide 4-14), under 250 nM.
Regarding `CC[C@H](C)[C@@H]1NC(=O)[C@@H](NC(=O)[C@H](Cc2ccc(O)cc2)NC(=O)[C@H](C)NC(=O)[C@H](CO)NC(=O)CNC(=O)[C@H](CCC(=O)O)NC(C)=O)CSSC[C@@H](C(=O)N[C@H](C(=O)N[C@@H](CCC(=O)O)C(N)=O)[C@@H](C)O)NC(=O)[C@H](CCCNC(=N)N)NC(=O)[C@H](Cc2c[nH]cn2)NC(=O)[C@H](CCC(=O)O)NC(=O)CNC(=O)[C@H](Cc2c[nH]c3ccccc23)NC(=O)[C@H](CC(=O)O)NC(=O)[C@H](CCC(N)=O)NC(=O)[C@H](Cc2cn(C)c3ccccc23)NC1=O` [Compound 59] (Ac-EGSAYCI[Trp(1-Me)]QDWGEHRCTE-NH2; disulfide 6-16), the IC50 is under 100 nM.
The same measure, in the same setting: the same measure for `CC[C@H](C)[C@@H]1NC(=O)[C@@H](NC(=O)[C@@H](NC(=O)[C@H](CCC(=O)O)NC(=O)CNC(=O)[C@H](CCC(=O)O)NC(C)=O)[C@@H](C)CC)CSSC[C@@H](C(=O)N[C@@H](CCC(=O)O)C(=O)NCC(=O)N[C@@H](CCC(=O)O)C(N)=O)NC(=O)[C@H](CCCNC(=N)N)NC(=O)[C@H](Cc2c[nH]cn2)NC(=O)[C@H](CCC(=O)O)NC(=O)CNC(=O)[C@H](Cc2c[nH]c3ccccc23)NC(=O)[C@H](CC(=O)O)NC(=O)[C@H](CCC(N)=O)NC(=O)[C@H](Cc2c[nH]c3ccccc23)NC1=O` [Compound 35] (Ac-EGEICIWQDWGEHRCEGE-NH2; disulfide 5-15): under 500 nM; for `CC[C@H](C)[C@H](NC(C)=O)C(=O)N[C@H]1CSSC[C@@H](C(=O)N[C@H](C(=O)N[C@@H](CCC(=O)O)C(=O)NCC(=O)N[C@@H](CCCCNC(=O)COCCOCCNC(=O)COCCOCCNC(=O)CC[C@H](NC(=O)CCCCCCCCCCCCCCC(=O)O)C(=O)O)C(N)=O)[C@@H](C)O)NC(=O)[C@H](CCCNC(=N)N)NC(=O)[C@H](Cc2c[nH]cn2)NC(=O)[C@H](CCC(=O)O)NC(=O)CNC(=O)[C@H](Cc2c[nH]c3ccccc23)NC(=O)[C@H](CC(=O)O)NC(=O)[C@H](CCC(N)=O)NC(=O)[C@H](Cc2c[nH]c3ccccc23)NC(=O)[C@H]([C@@H](C)CC)NC1=O` [Compound 93] (Ac-ICIWQDWGEHRCTEGK([AEEA-AEEA-γGlu-C16 diacid])-NH2; disulfide 2-12): under 500 nM.
Same read-out and setting: the same measure for `CC[C@H](C)[C@H](NC(C)=O)C(=O)N[C@H]1CSSC[C@@H](C(=O)N[C@H](C(=O)NCC(=O)N[C@@H](C)C(=O)N[C@@H](CCC(=O)O)C(=O)N[C@@H](CO)C(N)=O)[C@@H](C)O)NC(=O)[C@H](CCCNC(=N)N)NC(=O)[C@H](Cc2c[nH]cn2)NC(=O)[C@H](C)NC(=O)CNC(=O)[C@H](Cc2c[nH]c3ccccc23)NC(=O)[C@H](CC(=O)O)NC(=O)[C@H](CCC(N)=O)NC(=O)[C@H](Cc2c[nH]c3ccccc23)NC(=O)[C@H]([C@@H](C)CC)NC1=O` [Compound 47] (Ac-ICIWQDWGAHRCTGAES-NH2; disulfide 2-12): under 100 nM.
Consider `CC[C@H](C)[C@H](NC(C)=O)C(=O)N[C@H]1CSSC[C@@H](C(=O)N[C@H](C(N)=O)[C@@H](C)O)NC(=O)[C@H](CO)NC(=O)[C@H](Cc2c[nH]cn2)NC(=O)[C@H](CCC(=O)O)NC(=O)CNC(=O)[C@H](Cc2c[nH]c3ccccc23)NC(=O)[C@H](CC(=O)O)NC(=O)[C@H](CCC(N)=O)NC(=O)[C@H](Cc2c[nH]c3ccccc23)NC(=O)[C@H](C(C)C)NC1=O` [F, reference compound] (Ac-ICVWQDWGEHSCT-NH2; disulfide 2-12), for which the pIC50 under setting [1] is 6.27.
Regarding `CC[C@H](C)[C@@H]1NC(=O)[C@@H](NC(=O)[C@H](Cc2ccccc2)NC(=O)[C@H](CCC(=O)O)NC(=O)[C@H](CO)NC(C)=O)CSSC[C@@H](C(=O)N[C@@H](CO)C(=O)N[C@@H](CCC(=O)O)C(=O)N[C@@H](C)C(N)=O)NC(=O)[C@H](CCCNC(=N)N)NC(=O)[C@H](Cc2c[nH]cn2)NC(=O)[C@H](CCC(=O)O)NC(=O)CNC(=O)[C@H](Cc2c[nH]c3ccccc23)NC(=O)[C@H](CC(=O)O)NC(=O)[C@H](CCC(N)=O)NC(=O)[C@H](Cc2cn(C)c3ccccc23)NC1=O` [Compound 84] (Ac-SEFCI[Trp(1-Me)]QDWGEHRCSEA-NH2; disulfide 4-14), the IC50 was under 100 nM.
In the case of `CC[C@H](C)[C@H](NC(C)=O)C(=O)N[C@H]1CSSC[C@@H](C(=O)N[C@H](C(=O)N[C@@H](CCC(=O)O)C(=O)NCC(=O)N[C@@H](CCCCNC(=O)COCCOCCNC(=O)COCCOCCNC(=O)CC[C@H](NC(=O)CCCCCCCCCCCCCCCCCCC(=O)O)C(=O)O)C(N)=O)[C@@H](C)O)NC(=O)[C@H](CCCNC(=N)N)NC(=O)[C@H](Cc2c[nH]cn2)NC(=O)[C@H](CCC(=O)O)NC(=O)CNC(=O)[C@H](Cc2c[nH]c3ccccc23)NC(=O)[C@H](CC(=O)O)NC(=O)[C@H](CCC(N)=O)NC(=O)[C@H](Cc2c[nH]c3ccccc23)NC(=O)[C@H]([C@@H](C)CC)NC1=O` [Compound 98] (Ac-ICIWQDWGEHRCTEGK([AEEA-AEEA-γGlu-C20 diacid])-NH2; disulfide 2-12), the IC50 is under 500 nM.
For `CCC[C@@H]1NC(=O)[C@@H](NC(=O)[C@@H](NC(C)=O)[C@@H](C)CC)CSSC[C@@H](C(=O)N[C@H](C(N)=O)[C@@H](C)O)NC(=O)[C@H](CCCNC(=N)N)NC(=O)[C@H](Cc2c[nH]cn2)NC(=O)[C@H](CCC(=O)O)NC(=O)CNC(=O)[C@H](Cc2c[nH]c3ccccc23)NC(=O)[C@H](CC(=O)O)NC(=O)[C@H](CCC(N)=O)NC(=O)[C@H](Cc2c[nH]c3ccccc23)NC1=O` [Norvaline, reference compound] (Ac-IC[Nva]WQDWGEHRCT-NH2; disulfide 2-12), the pIC50 (Table 5, different residues at position 3 of Ac-IC(1)XWQDWGEHRC(1)T-NH2, read-out: IC50, CP hemolysis) was under 6.00.

As a reminder, the IC50 is the concentration at which inhibition is half-maximal. A word on the pIC50: it is the negative decadic logarithm of the IC50, by convention in mol/L.
